Molecular target: FACL19 (Mycobacterium tuberculosis, UniProt P9WQ51)

Structure (SMILES) | KM
CC(C)(COP(=O)(O)OP(=O)(O)OC[C@H]1O[C@@H](n2cnc3c(N)ncnc32)[C@H](O)[C@@H]1OP(=O)(O)O)[C@@H](O)C(=O)NCCC(=O)NCCS [compound 1, CoASH] | Kinetic analysis of CoA formation by wild type FACL19 and FACL19i proteins
Nc1ncnc2c1ncn2[C@@H]1O[C@H](COP(=O)(O)OP(=O)(O)OP(=O)(O)O)[C@@H](O)[C@H]1O [compound 3, ATP] | no significant change in KM was observed for ATP

From article PMC2644305 (Nature chemical biology, 2009)
